Read-outs that look alike come from different tables or passages of the source.

Test [1] concerns the target TBK1 (Homo sapiens (Human), UniProt Q9UHD2). As to the kind of experiment: TBK1 TR-FRET enzymatic assay.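 Further: phosphorylation of a biotinylated Ser/Thr peptide by purified full-length recombinant TBK1, read by TR-FRET after 240 min at 25 °C, IC50 is the geometric mean of at least four runs.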
For test [2], the target named is hJAK2 (Homo sapiens (Human), UniProt O60674). The experiment in a line: hJAK2 LANCE TR-FRET enzymatic assay. The class given is biochemical. The note with it: read-out: JAK2 IC50.
Chain of hJAK2 (O60674 whole entry): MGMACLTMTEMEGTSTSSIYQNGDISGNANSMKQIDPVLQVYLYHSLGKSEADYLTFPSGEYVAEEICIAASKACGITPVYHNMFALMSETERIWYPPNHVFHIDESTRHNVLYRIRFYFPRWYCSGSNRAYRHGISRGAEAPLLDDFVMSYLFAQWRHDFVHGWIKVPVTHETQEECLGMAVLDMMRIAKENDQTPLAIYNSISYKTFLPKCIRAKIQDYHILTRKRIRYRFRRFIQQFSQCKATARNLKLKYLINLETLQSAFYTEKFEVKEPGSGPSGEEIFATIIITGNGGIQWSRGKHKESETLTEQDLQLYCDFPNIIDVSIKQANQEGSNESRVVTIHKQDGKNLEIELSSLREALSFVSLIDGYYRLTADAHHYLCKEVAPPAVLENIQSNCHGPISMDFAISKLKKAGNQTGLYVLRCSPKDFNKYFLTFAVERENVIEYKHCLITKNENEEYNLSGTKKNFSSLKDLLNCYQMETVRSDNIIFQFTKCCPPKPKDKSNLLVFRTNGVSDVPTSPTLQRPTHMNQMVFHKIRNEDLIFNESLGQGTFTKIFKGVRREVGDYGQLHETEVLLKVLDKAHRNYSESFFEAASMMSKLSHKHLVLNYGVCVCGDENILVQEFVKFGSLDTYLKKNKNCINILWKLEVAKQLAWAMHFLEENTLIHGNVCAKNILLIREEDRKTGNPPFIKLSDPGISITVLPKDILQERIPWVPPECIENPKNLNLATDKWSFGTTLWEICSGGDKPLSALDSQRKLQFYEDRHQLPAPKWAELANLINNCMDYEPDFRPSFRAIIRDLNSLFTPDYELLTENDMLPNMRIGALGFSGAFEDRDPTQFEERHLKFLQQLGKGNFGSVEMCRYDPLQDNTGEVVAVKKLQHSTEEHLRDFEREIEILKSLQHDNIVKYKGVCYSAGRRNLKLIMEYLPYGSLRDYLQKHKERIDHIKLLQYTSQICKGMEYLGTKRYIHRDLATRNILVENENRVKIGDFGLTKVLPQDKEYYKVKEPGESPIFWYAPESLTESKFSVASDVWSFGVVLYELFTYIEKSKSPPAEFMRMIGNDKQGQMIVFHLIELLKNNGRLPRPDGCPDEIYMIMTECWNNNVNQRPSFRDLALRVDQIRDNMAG
Test [3] deals with IKKε (Homo sapiens (Human), UniProt Q14164). The experiment in a line: IKKε TR-FRET enzymatic assay. The class given is biochemical. The conditions noted are these: read-out: IKKe IC50.
Chain of IKKε (Q14164 whole entry): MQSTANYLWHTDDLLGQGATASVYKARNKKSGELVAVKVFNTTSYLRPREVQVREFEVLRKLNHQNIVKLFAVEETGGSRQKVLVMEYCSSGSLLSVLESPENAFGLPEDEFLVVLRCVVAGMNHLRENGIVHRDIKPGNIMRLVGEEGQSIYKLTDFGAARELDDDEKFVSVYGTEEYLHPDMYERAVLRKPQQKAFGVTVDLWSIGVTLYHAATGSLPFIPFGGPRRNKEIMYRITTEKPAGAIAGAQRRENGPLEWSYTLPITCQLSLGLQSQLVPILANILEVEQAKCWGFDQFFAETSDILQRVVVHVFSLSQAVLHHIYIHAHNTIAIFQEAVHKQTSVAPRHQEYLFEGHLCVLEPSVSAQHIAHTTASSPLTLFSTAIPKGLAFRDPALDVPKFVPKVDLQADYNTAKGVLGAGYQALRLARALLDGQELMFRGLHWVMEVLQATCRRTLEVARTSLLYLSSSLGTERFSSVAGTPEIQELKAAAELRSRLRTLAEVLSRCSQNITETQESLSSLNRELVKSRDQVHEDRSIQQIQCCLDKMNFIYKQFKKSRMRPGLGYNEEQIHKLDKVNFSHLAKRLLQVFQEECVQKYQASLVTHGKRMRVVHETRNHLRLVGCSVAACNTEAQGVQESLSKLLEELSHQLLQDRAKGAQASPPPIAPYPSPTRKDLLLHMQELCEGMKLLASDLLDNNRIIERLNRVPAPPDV
Where [4] appears, read: TR-FRET, 2×Km ATP, geometric mean of minimum four determinations.

Chain of TBK1 (Q9UHD2 whole entry): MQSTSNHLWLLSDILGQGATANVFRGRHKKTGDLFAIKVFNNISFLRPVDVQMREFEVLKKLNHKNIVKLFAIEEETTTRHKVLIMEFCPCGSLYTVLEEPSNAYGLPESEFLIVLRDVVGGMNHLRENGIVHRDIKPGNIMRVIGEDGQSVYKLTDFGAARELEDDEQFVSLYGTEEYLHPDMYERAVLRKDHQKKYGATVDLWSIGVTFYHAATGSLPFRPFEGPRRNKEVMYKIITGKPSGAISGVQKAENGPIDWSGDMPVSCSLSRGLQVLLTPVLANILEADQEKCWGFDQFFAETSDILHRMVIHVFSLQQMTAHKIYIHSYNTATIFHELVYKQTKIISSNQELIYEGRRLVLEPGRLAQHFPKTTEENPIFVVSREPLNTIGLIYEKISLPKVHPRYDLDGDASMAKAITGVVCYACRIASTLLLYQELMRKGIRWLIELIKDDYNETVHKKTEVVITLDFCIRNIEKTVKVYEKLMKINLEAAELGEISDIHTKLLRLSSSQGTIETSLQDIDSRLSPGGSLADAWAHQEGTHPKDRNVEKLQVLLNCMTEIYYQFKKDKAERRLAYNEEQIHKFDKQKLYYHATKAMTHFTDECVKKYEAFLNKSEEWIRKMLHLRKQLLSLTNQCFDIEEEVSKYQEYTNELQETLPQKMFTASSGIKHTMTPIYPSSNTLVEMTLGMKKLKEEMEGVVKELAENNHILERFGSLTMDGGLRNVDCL

`N#Cc1cc(-c2ncnc(Nc3cnn(C4CCNCC4)c3)n2)ccc1O[C@H]1CCCC[C@H]1F` (racemic) [Example 295, rac-2-(((1S,2R)-2-fluorocyclohexyl)oxy)-5-(4-((1-(piperidin-4-yl)-1H-pyrazol-4-yl)amino)-1,3,5-triazin-2-yl)benzonitrile]: the half-maximal inhibitory concentration (IC50) in test [1] worked out at 0.024 µM; in test [2] it was 0.154 µM; in test [3], 0.006 µM.
For `C[C@H]1CN(C(=O)CO)CC(F)(F)[C@H]1Oc1ccc(-c2ncnc(Nc3ccc(N4CCN(C5COC5)CC4)cc3)n2)cc1C#N` (relative stereo) [Example 430, Cis 2-((3,3-difluoro-1-(2-hydroxyacetyl)-5-methylpiperidin-4-yl)oxy)-5-(4-((4-(4-(oxetan-3-yl)piperazin-1-yl)phenyl)amino)-1,3,5-triazin-2-yl)benzonitrile], the IC50 in test [1] came to 0.004 µM; in test [2], 0.065 µM; in test [3] (setting [4]) it was 0.002 µM.
For the compound `C[C@@H]1CN(C(=O)CO)CC(F)(F)[C@H]1Oc1ccc(-c2ncnc(Nc3ccc(N4CCN(C5COC5)CC4)cc3)n2)cc1C#N` (relative stereo) [Example 432, trans-2-((3,3-difluoro-1-(2-hydroxyacetyl)-5-methylpiperidin-4-yl)oxy)-5-(4-((4-(4-(oxetan-3-yl)piperazin-1-yl)phenyl)amino)-1,3,5-triazin-2-yl)benzonitrile], the IC50 in test [1] stood at 0.005 µM; in test [2], 0.14 µM; in test [3] (setting [4]), 0.003 µM.
For `N#Cc1cc(-c2ncnc(Nc3ccc(N4CCN(C5COC5)CC4)cc3)n2)ccc1O[C@H]1CCN(C(=O)CO)C[C@@H]1C(F)(F)F` (relative stereo) [Example 438, Trans-2-((1-(2-hydroxyacetyl)-3-(trifluoromethyl)piperidin-4-yl)oxy)-5-(4-((4-(4-(oxetan-3-yl)piperazin-1-yl)phenyl)amino)-1,3,5-triazin-2-yl)benzonitrile], in that order: 0.006 µM, 0.015 µM and 0.008 µM.
In the same order, the values of `N#Cc1cc(-c2ncnc(Nc3ccc(N4CCN(C5COC5)CC4)cc3)n2)ccc1O[C@H]1CCN(C(=O)CO)C[C@H]1C(F)(F)F` (relative stereo) [Example 439, cis-2-((1-(2-hydroxyacetyl)-3-(trifluoromethyl)piperidin-4-yl)oxy)-5-(4-((4-(4-(oxetan-3-yl)piperazin-1-yl)phenyl)amino)-1,3,5-triazin-2-yl)benzonitrile] are 0.009 µM, 0.021 µM and 0.012 µM.
With `N#Cc1cc(-c2ncnc(Nc3ccc(N4CCN(C5COC5)CC4)cc3)n2)ccc1O[C@H]1CCNCC1(F)F` (single isomer, unassigned) [Example 149], the half-inhibitory concentration (IC50) in test [1] is 0.049 µM; in test [2], 0.33 µM; in test [3], 0.229 µM.
For the compound `N#Cc1cc(-c2ncnc(Nc3ccc(N4CCN(C5COC5)CC4)cc3)n2)ccc1O[C@@H]1CCNCC1(F)F` (single isomer, unassigned) [Example 150], the concentration for half-maximal inhibition (IC50) in test [1] turned out to be 0.002 µM; in test [2], 0.27 µM; in test [3] it was 0.014 µM.
For `C[C@H](O)C(=O)N1CC[C@@H](Oc2ccc(-c3ncnc(Nc4ccc(N5CCN(C6COC6)CC5)cc4)n3)cc2C#N)C(F)(F)C1` (single isomer, unassigned) [Example 156], in that order: 0.016 µM, 0.196 µM and 0.023 µM.
Regarding `C[C@@H](O)C(=O)N1CC[C@H](Oc2ccc(-c3ncnc(Nc4ccc(N5CCN(C6COC6)CC5)cc4)n3)cc2C#N)C(F)(F)C1` (single isomer, unassigned) [Example 158], the 50% inhibitory concentration (IC50) is 0.001 µM in test [1], 0.171 µM in test [2] and 0.003 µM in test [3].
As for `C[C@@H](O)C(=O)N1CC[C@@H](Oc2ccc(-c3ncnc(Nc4ccc(N5CCN(C6COC6)CC5)cc4)n3)cc2C#N)C(F)(F)C1` (single isomer, unassigned) [Example 159], the IC50 was 0.079 µM in test [1], 0.207 µM in test [2] and 0.209 µM in test [3].
With `CC1(C)CN(C(=O)CO)C[C@H](F)[C@@H]1Oc1ccc(-c2ncnc(Nc3ccc(N4CCN(C5COC5)CC4)cc3)n2)cc1C#N` (single isomer, unassigned) [Example 178], the 50% inhibitory concentration (IC50) in test [1] is 0.002 µM; in test [2], 0.049 µM; in test [3] it was 0.001 µM.
In the same order, the values of `CC1(C)CN(C(=O)CO)C[C@@H](F)[C@H]1Oc1ccc(-c2ncnc(Nc3ccc(N4CCN(C5COC5)CC4)cc3)n2)cc1C#N` (single isomer, unassigned) [Example 179] are 0.008 µM, 0.234 µM and 0.013 µM.
For `N#Cc1cc(-c2ncnc(Nc3ccc(N4CCN(C5COC5)CC4)cc3)n2)ccc1O[C@H]1CN(C(=O)CO)CC1(F)F` (single isomer, unassigned) [Example 195], in that order: 0.002 µM, 0.09 µM and 0.01 µM.
With `N#Cc1cc(-c2ncnc(Nc3ccc(N4CCN(C5COC5)CC4)cc3)n2)ccc1O[C@@H]1CN(C(=O)CO)CC1(F)F` (single isomer, unassigned) [Example 196], the IC50 in test [1] came to 0.114 µM; in test [2], 0.118 µM; in test [3] it was 0.391 µM.
`CC(N)C(=O)N1CC[C@H](Oc2ccc(-c3ncnc(Nc4ccc(N5CCN(C6COC6)CC5)cc4)n3)cc2C#N)[C@H](F)C1` (stereo in doubt) [Example 434, 2-(((3R,4S)-1-((R)-2-aminopropanoyl)-3-fluoropiperidin-4-yl)oxy)-5-(4-((4-(4-(oxetan-3-yl)piperazin-1-yl)phenyl)amino)-1,3,5-triazin-2-yl)benzonitrile]: the values for the IC50 in test [1], in test [2] and in test [3] (setting [4]) were 0.02 µM, 0.865 µM and 0.042 µM, respectively.
Regarding `N#Cc1cc(-c2ncnc(Nc3ccc(N4CCS(=O)(=O)CC4)cc3)n2)ccc1OC1CCOCC1` [Example 1, 5-(4-((4-(1,1-dioxidothiomorpholino)phenyl)amino)-1,3,5-triazin-2-yl)-2-((tetrahydro-2H-pyran-4-yl)oxy)benzonitrile], the IC50 stood at 0.002 µM in test [1], 0.36 µM in test [2] and 0.006 µM in test [3].
In the same order, the values of `CC(=O)N1CC[C@@H](Oc2ccc(-c3ncnc(Nc4ccc(N5CCN(C6COC6)CC5)cc4)n3)cc2C#N)C1` [Example 3, (R)-2-((1-acetylpyrrolidin-3-yl)oxy)-5-(4-((4-(4-(oxetan-3-yl)piperazin-1-yl)phenyl)amino)-1,3,5-triazin-2-yl)benzonitrile] are 0.02 µM, 0.724 µM and 0.099 µM.
Turning to `N#Cc1cc(-c2ncnc(Nc3ccc(N4CCN(C5COC5)CC4)cc3)n2)ccc1OC1COC1` [Example 5, 5-(4-((4-(4-(oxetan-3-yl)piperazin-1-yl)phenyl)amino)-1,3,5-triazin-2-yl)-2-(oxetan-3-yloxy)benzonitrile], the IC50 in test [1] worked out at 0.035 µM; in test [2], 0.269 µM; in test [3], 0.101 µM.
With `CC1(COc2ccc(-c3ncnc(Nc4ccc(N5CCN(C6COC6)CC5)cc4)n3)cc2C#N)COC1` [Example 6, 2-((3-methyloxetan-3-yl)methoxy)-5-(4-((4-(4-(oxetan-3-yl)piperazin-1-yl)phenyl)amino)-1,3,5-triazin-2-yl)benzonitrile], the IC50 in test [1] was 0.007 µM; in test [2], 0.178 µM; in test [3] it was 0.02 µM.
For `COc1cc(Nc2ncnc(-c3ccc(OC4CCOCC4)c(C#N)c3)n2)ccc1N1CCN(CC(F)F)CC1` [Example 7, 5-(4-((4-(4-(2,2-difluoroethyl)piperazin-1-yl)-3-methoxyphenyl)amino)-1,3,5-triazin-2-yl)-2-((tetrahydro-2H-pyran-4-yl)oxy)benzonitrile], in that order: 0.001 µM, 0.225 µM and 0.003 µM.
For `Cn1cc(Nc2ncnc(-c3ccc(N4CCCC4)c(C#N)c3)n2)cn1` [Example 8, 5-(4-((1-methyl-1H-pyrazol-4-yl)amino)-1,3,5-triazin-2-yl)-2-(pyrrolidin-1-yl)benzonitrile], in that order: 0.007 µM, 0.278 µM and 0.019 µM.
Consider `Cn1cc(Nc2ncnc(-c3ccc(OC4CCOCC4)c(C#N)c3)n2)cn1` [Example 9, 5-(4-((1-methyl-1H-pyrazol-4-yl)amino)-1,3,5-triazin-2-yl)-2-((tetrahydro-2H-pyran-4-yl)oxy)benzonitrile], for which the IC50 is 0.003 µM in test [1], 0.363 µM in test [2] and 0.007 µM in test [3].
For `N#Cc1cc(-c2ncnc(Nc3ccc(N4CCN(C5COC5)CC4)cc3)n2)ccc1N1CCCC1` [Example 10, 5-(4-((4-(4-(oxetan-3-yl)piperazin-1-yl)phenyl)amino)-1,3,5-triazin-2-yl)-2-(pyrrolidin-1-yl)benzonitrile], in that order: 0.005 µM, 0.336 µM and 0.015 µM.
Consider `CC(=O)N1CCN(c2ccc(Nc3ncnc(-c4ccc(OC5CCOCC5)c(C#N)c4)n3)cc2)CC1` [Example 11, 5-(4-((4-(4-acetylpiperazin-1-yl)phenyl)amino)-1,3,5-triazin-2-yl)-2-((tetrahydro-2H-pyran-4-yl)oxy)benzonitrile], for which the IC50 in test [1] worked out at 0.001 µM; in test [2], 0.224 µM; in test [3], 0.004 µM.
Take `COc1cc(Nc2ncnc(-c3ccc(OC4CCOCC4)c(C#N)c3)n2)ccc1N1CCN(C2COC2)CC1` [Example 13, 5-(4-((3-methoxy-4-(4-(oxetan-3-yl)piperazin-1-yl)phenyl)amino)-1,3,5-triazin-2-yl)-2-((tetrahydro-2H-pyran-4-yl)oxy)benzonitrile]: the concentration for half-maximal inhibition (IC50) in test [1] amounted to 0.001 µM; in test [2], 0.127 µM; in test [3], 0.002 µM.

The values above are taken from patent publication US10040781B2, “Tank-binding kinase inhibitor compounds” (Gilead Sciences, Inc., priority 2014, dated 2018).
